Common to all, as to assay: NCI-60 cell line screen, 48 h
For experiment [1], the system named is EKVX.
Experiment [2] deals with NCI-H522.
Experiment [3] has as its system MDA-MB-231.
Experiment [4] has as its system CCRF-CEM.
Experiment [5] relates to OVCAR-3.
For experiment [6], the system named is KM12.
Experiment [7] concerns UACC-257.
The subject of experiment [8] is UO-31.
Experiment [9] relates to NCI-H460.
Experiment [10] has as its system RXF 393.
The test system of experiment [11] is DU-145.
The test system of experiment [12] is SNB-19.
Experiment [13] concerns OVCAR-4.
The test system of experiment [14] is HL-60.
Experiment [15] deals with COLO 205.
The subject of experiment [16] is IGROV-1.
Experiment [17] has as its system NCI/ADR-RES.
Experiment [18] relates to A549.
Experiment [19] deals with Malme-3M.
Experiment [20] has as its system HCT-116.

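Cells were grown in 96-well plates and exposed to each compound for 48 hours at five concentrations; endpoints were interpolated linearly between bracketing concentrations, or set to the highest concentration if not reached. Here, GI50 denotes the concentration required for 50% inhibition of growth.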 Active and inactive are the calls of the source. Rule as the data show it: active = GI50 up to about 1.1 µM and inactive = higher.

On to `C#CCn1c(=O)c(Cl)cn(/C(=C/C(=O)OCC)C(=O)OCC)c1=O`, for which the GI50 in experiment [1] is 16.1 µM (inactive); in experiment [2], 3.38 µM (inactive); in experiment [3], 18.2 µM (inactive); in [4] it was 5.2 µM (inactive); in experiment [5], 3.48 µM (inactive); in [6] it was 31.9 µM (inactive). Moreover, the GI50 in experiment [7] is 5.07 µM (inactive); in experiment [8], 3.4 µM (inactive); in [9], 32.4 µM (inactive); in experiment [10], 2.12 µM (inactive); in experiment [11], 18.6 µM (inactive); in [12], 39.8 µM (inactive). Besides, the GI50 in experiment [13] was 17.2 µM (inactive); in experiment [14], 3.05 µM (inactive); in experiment [15] it was 1.04 µM (active); in [16], 17.3 µM (inactive); in experiment [17], 26 µM (inactive); in experiment [18] it was 25 µM (inactive). Further, the GI50 in experiment [19] was 3.86 µM (inactive); in [20], 4.69 µM (inactive).

On to `NC(Cn1ccc(=O)c(O)c1)C(=O)O` (stereo not given) [MIMOSINE], for which the GI50 in experiment [1] was > 100 µM (inactive); in [2], > 100 µM (inactive); in experiment [3] it was > 100 µM (inactive); in [4], 33.7 µM (inactive); in [5], > 100 µM (inactive); in experiment [6] it was > 100 µM (inactive). Further, the GI50 in [7], in experiment [8], in experiment [9], in experiment [10], in experiment [11] and in experiment [12] was > 100 µM (inactive) each time. Moreover, the GI50 was > 100 µM (inactive) in experiment [13]; 81.5 µM (inactive) in experiment [14]; > 100 µM (inactive) in [15]; > 100 µM (inactive) in experiment [16]; > 100 µM (inactive) in [17]; > 100 µM (inactive) in [18]. In addition, the results for the GI50 in [19] and in [20] were 54.8 µM (inactive) and > 100 µM (inactive), respectively.

For the molecule `CCOC(=O)CNC(=O)C(CSCC1C(=O)Nc2ccccc21)NC(=O)CCC(N)C(=O)OCC` (stereo not given), the GI50 in [1] was 1.75 µM (inactive); in experiment [2] it was 1.63 µM (inactive); in experiment [3] it was 1.58 µM (inactive); in experiment [4] it was 0.269 µM (active); in experiment [5], 2.01 µM (inactive); in experiment [6], 2.89 µM (inactive). In addition, the GI50 is 4.16 µM (inactive) in experiment [7]; 1.23 µM (inactive) in experiment [8]; 3.28 µM (inactive) in experiment [9]; 1.19 µM (inactive) in experiment [10]; 3.75 µM (inactive) in experiment [11]; 7.46 µM (inactive) in experiment [12]. Moreover, the GI50 was 2.78 µM (inactive) in experiment [13]; 2.36 µM (inactive) in [14]; 1.24 µM (inactive) in [15]; 1.15 µM (inactive) in [16]; 1.08 µM (active) in [17]; 2.34 µM (inactive) in experiment [18]. Also, the values for the GI50 in experiment [19] and in experiment [20] were 1.88 µM (inactive) and 0.551 µM (active), respectively.

For the molecule `O=C(O)[C@H]1CCCN1CP(=O)(O)CN1CCC[C@@H]1C(=O)O`, the GI50 in experiment [1], in experiment [2], in [3], in [4], in experiment [5] and in [6] was > 100 µM (inactive) in each case. For the same molecule, the GI50 in experiment [7], in experiment [8], in experiment [9], in experiment [10], in experiment [11] and in experiment [12] was > 100 µM (inactive) in each case. In addition, the GI50 in experiment [13], in experiment [14], in experiment [15], in [16], in [17] and in experiment [18] was > 100 µM (inactive) in each case. The GI50 in experiment [19] and in experiment [20] was > 100 µM (inactive) throughout.

`CCC1(O)C=CC(=O)C=C1`: the GI50 in experiment [1] was 55.1 µM (inactive); in experiment [2] it was 10.3 µM (inactive); in experiment [3] it was 17.2 µM (inactive); in experiment [4], 60.7 µM (inactive); in experiment [5] it was 27.5 µM (inactive); in [6], 15 µM (inactive). The GI50 in experiment [7] was 18.8 µM (inactive); in experiment [8], 18.1 µM (inactive); in experiment [9] it was 23.4 µM (inactive); in [10], 18.4 µM (inactive); in experiment [11], 23.9 µM (inactive); in [12] it was 18.1 µM (inactive). For the same molecule, the GI50 is 23.1 µM (inactive) in experiment [13]; 35 µM (inactive) in [14]; 42.4 µM (inactive) in experiment [15]; 17.2 µM (inactive) in experiment [16]; 24 µM (inactive) in experiment [17]; 31.6 µM (inactive) in [18]. Besides, the GI50 in [19] is 8.77 µM (inactive); in experiment [20] it was 36.1 µM (inactive).

As to `O=c1[nH]c2c(c(=O)[nH]1)SC(c1ccccc1)C2` (stereo not given), the GI50 was 72.1 µM (inactive) in experiment [1]; > 100 µM (inactive) in [2]; > 100 µM (inactive) in [3]; > 100 µM (inactive) in [4]; > 100 µM (inactive) in [5]; > 100 µM (inactive) in [6]. In addition, the GI50 in experiment [7], in experiment [8], in [9], in experiment [10], in experiment [11] and in [12] was > 100 µM (inactive) throughout. Further, the GI50 in [13], in [14], in experiment [15], in experiment [16], in experiment [17] and in [18] was > 100 µM (inactive) each time. The GI50 in experiment [19] and in experiment [20] was > 100 µM (inactive) throughout.

Turning to `CN(C)c1cccc(F)c1C(=O)NC(=O)Nc1ccc(Cl)cc1`, the GI50 in [1] is 4.29 µM (inactive); in [2], 2.27 µM (inactive); in experiment [3], 14.8 µM (inactive); in [4], 0.745 µM (active); in [5], 2.09 µM (inactive); in experiment [6] it was 2.92 µM (inactive). Further, the GI50 was 3.42 µM (inactive) in experiment [7]; 5.87 µM (inactive) in [8]; 1.91 µM (inactive) in [9]; 3.67 µM (inactive) in experiment [10]; 4.03 µM (inactive) in experiment [11]; > 26.1 µM (inactive) in [12]. Further, the GI50 is > 43 µM (inactive) in experiment [13]; 0.533 µM (active) in experiment [14]; 2.21 µM (inactive) in experiment [15]; 3.78 µM (inactive) in [16]; 3.21 µM (inactive) in [17]; 5.48 µM (inactive) in experiment [18]. In addition, the figures for the GI50 in [19] and in experiment [20] were 1.76 µM (inactive) and 1.77 µM (inactive), respectively.

With `CO/N=C(/C(=O)OC)c1ccccc1COc1ccccc1C(F)(F)F`, the GI50 in experiment [1] was 11.3 µM (inactive); in experiment [2], 14.7 µM (inactive); in [3] it was 80.9 µM (inactive); in experiment [4], 13 µM (inactive); in experiment [5], 23.8 µM (inactive); in experiment [6], 30.2 µM (inactive). The GI50 in experiment [7] was 16 µM (inactive); in experiment [8], 39.1 µM (inactive); in experiment [9] it was 32.4 µM (inactive); in experiment [10] it was > 100 µM (inactive); in experiment [11], 37 µM (inactive); in experiment [12], 98.2 µM (inactive). Further, the GI50 was 7.21 µM (inactive) in experiment [13]; 10.5 µM (inactive) in experiment [14]; 25.4 µM (inactive) in experiment [15]; 20.7 µM (inactive) in experiment [16]; 29.3 µM (inactive) in experiment [17]; 21.7 µM (inactive) in experiment [18]. Moreover, the GI50 in experiment [19] is 11.6 µM (inactive); in experiment [20], 25.1 µM (inactive).

On to `O=C(O)C/C(=C\c1ccccc1)C(=O)O`, for which the GI50 in experiment [1], in experiment [2], in experiment [3], in experiment [4], in experiment [5] and in [6] was > 100 µM (inactive) each time. Moreover, the GI50 in experiment [7], in experiment [8], in [9], in experiment [10], in experiment [11] and in experiment [12] was > 100 µM (inactive) throughout. Further, the GI50 in experiment [13], in experiment [14], in experiment [15], in [16], in [17] and in [18] was > 100 µM (inactive) each time. Further, the GI50 in [19] and in experiment [20] was > 100 µM (inactive) in each case.

Take `COc1ccc(NC(=O)CC(=O)NN)cc1`: the GI50 in [1], in experiment [2], in experiment [3], in [4], in [5] and in experiment [6] was > 100 µM (inactive) in each case. Further, the GI50 in experiment [7], in experiment [8], in experiment [9], in [10], in experiment [11] and in experiment [12] was > 100 µM (inactive) each time. The GI50 in experiment [13], in [14], in experiment [15], in experiment [16], in experiment [17] and in experiment [18] was > 100 µM (inactive) throughout. In addition, the GI50 in experiment [19] and in [20] was > 100 µM (inactive) each time.

(Values after ChEMBL document CHEMBL1201862, “PubChem BioAssay data set” (2004).)
